# Measurements published in patent US20230295087A1, “AGONISTS OF ROR GAMMAt” (BRISTOL-MYERS SQUIBB COMPANY, priority 2019, published 2023).
# Biological target: T1, human RORgT (Homo sapiens, UniProt P51449)
# T1 construct: expressed in transfected cells
# T1 sequence (P51449 267-516): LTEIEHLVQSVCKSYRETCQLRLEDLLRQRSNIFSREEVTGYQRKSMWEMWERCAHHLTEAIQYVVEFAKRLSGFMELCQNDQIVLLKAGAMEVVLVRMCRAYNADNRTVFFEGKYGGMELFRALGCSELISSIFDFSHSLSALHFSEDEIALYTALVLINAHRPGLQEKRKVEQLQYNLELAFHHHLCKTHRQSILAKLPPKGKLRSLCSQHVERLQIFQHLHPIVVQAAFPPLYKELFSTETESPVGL
# Assay: RORgT Gal4 Luciferase Reporter Gene Assay
# Format: cell-based
# Conditions: engineered Jurkat cells overexpressing RORgT (LBD or full length) fused with Gal4 Luc reporter; 18 hours at 37° C.; luminescence
# How it was run: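 Jurkat cells expressing Gal4 Luc with either RORgT LBD (aa267-516) or full-length human RORgT, 10,000 cells/well, treated with compound (40 µM to 0.67 nM final, 3-fold dilutions) for 18 h at 37° C. Steady-Glo luminescence read; inhibition of constitutive activity as % signal-window reduction relative to a control compound.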
row,Structure (SMILES),EC50
1,"CS(=O)(=O)n1cc(C(=O)N2CC[C@@]3(S(=O)(=O)c4ccccc4)c4ccc(OCc5c(Cl)cccc5Cl)cc4CC[C@@H]23)cn1 [Example 99, 4-[(3aR,9bR)-9b-(benzenesulfonyl)-7-[(2,6-dichlorophenyl)methoxy]-1H,2H,3H,3aH,4H,5H,9bH-benzo[e]indole-3-carbonyl]-1-methanesulfonyl-1H-pyrazole]",748 nM
2,"Cn1cc(C(=O)N2CC[C@@]3(S(=O)(=O)c4ccccc4)c4ccc(OCc5c(Cl)cccc5Cl)cc4CC[C@@H]23)cn1 [Example 100, 4-[(3aR,9bR)-9b-(benzenesulfonyl)-7-[(2,6-dichlorophenyl)methoxy]-1H,2H,3H,3aH,4H,5H,9bH-benzo[e]indole-3-carbonyl]-1-methyl-1H-pyrazole]",317 nM
3,"O=C(NC1CCS(=O)(=O)C1)N1CC[C@@]2(S(=O)(=O)c3ccccc3)c3ccc(OCc4c(Cl)cccc4Cl)cc3CC[C@@H]12 (stereo partly drawn) [Example 101, (3aR,9bR)-9b-(benzenesulfonyl)-7-[(2,6-dichlorophenyl)methoxy]-N-(1,1-dioxo-1λ^6-thiolan-3-yl)-1H,2H,3H,3aH,4H,5H,9bH-benzo[e]indole-3-carboxamide]",62 nM
4,"CC(C)S(=O)(=O)CC(=O)N1CC[C@@]2(S(=O)(=O)c3ccccc3)c3ccc(OCc4c(Cl)cccc4Cl)cc3CC[C@@H]12 [Example 102, 1-[(3aR,9bR)-9b-(benzenesulfonyl)-7-[(2,6-dichlorophenyl)methoxy]-1H,2H,3H,3aH,4H,5H,9bH-benzo[e]indol-3-yl]-2-(propane-2-sulfonyl)ethan-1-one]",620 nM
5,"CS(=O)(=O)N1CCC(CCC(=O)N2CC[C@@]3(S(=O)(=O)c4ccccc4)c4ccc(OCc5c(Cl)cccc5Cl)cc4CC[C@@H]23)CC1 [Example 103, 1-[(3aR,9bR)-9b-(benzenesulfonyl)-7-[(2,6-dichlorophenyl)methoxy]-1H,2H,3H,3aH,4H,5H,9bH-benzo[e]indol-3-yl]-3-(1-methanesulfonylpiperidin-4-yl)propan-1-one]",259 nM
6,"O=C(N1CC[C@@]2(S(=O)(=O)c3ccc(F)cc3)c3ccc(OCc4ccc(F)cc4Cl)cc3CC[C@@H]12)C1(O)CCS(=O)(=O)CC1 [Example 104, 4-[(3aR,9bR)-7-[(2-chloro-4-fluorophenyl)methoxy]-9b-(4-fluorobenzenesulfonyl)-1H,2H,3H,3aH,4H,5H,9bH-benzo[e]indole-3-carbonyl]-4-hydroxy-1λ^6-thiane-1,1-dione]",5.6 nM
7,"O=C(N1CC[C@@]2(S(=O)(=O)c3ccccc3)c3ccc(OCc4c(Cl)cccc4Cl)cc3CC[C@@H]12)C1(O)CCS(=O)(=O)CC1 [Example 105, 4-[(3aR,9bR)-9b-(benzenesulfonyl)-7-[(2,6-dichlorophenyl)methoxy]-1H,2H,3H,3aH,4H,5H,9bH-benzo[e]indole-3-carbonyl]-4-hydroxy-1λ^6-thiane-1,1-dione]",7.9 nM
8,"NC(=O)[C@H]1CC[C@H](C(=O)N2CC[C@@]3(S(=O)(=O)c4ccccc4)c4ccc(OCc5c(Cl)cccc5Cl)cc4CC[C@@H]23)CC1 [Example 106, (1r,4r)-4-[(3aR,9bR)-9b-(benzenesulfonyl)-7-[(2,6-dichlorophenyl)methoxy]-1H,2H,3H,3aH,4H,5H,9bH-benzo[e]indole-3-carbonyl]cyclohexane-1-carboxamide]",2.8 nM
9,"CC(=O)N[C@H]1CC[C@H](C(=O)N2CC[C@@]3(S(=O)(=O)c4ccc(F)cc4)c4ccc(OCc5c(F)cccc5C(F)(F)F)cc4CC[C@@H]23)CC1 [Example 108, N-[(1r,4r)-4-[(3aR,9bR)-7-{[2-fluoro-6-(trifluoromethyl)phenyl]methoxy} -9b-(4-fluorobenzenesulfonyl)-1H,2H,3H,3aH,4H,5H,9bH-benzo[e]indole-3-carbonyl]cyclohexyl]acetamide]",131 nM
10,"O=C(O)[C@H]1CC[C@H](C(=O)N2CC[C@@]3(S(=O)(=O)c4ccc(Cl)cc4)c4ccc(OCc5c(F)cccc5C(F)(F)F)cc4CC[C@@H]23)CC1 [Example 111, (1r,4r)-4-[(3aR,9bR)-9b-(4-chlorobenzenesulfonyl)-7-{[2-fluoro-6-(trifluoromethyl)phenyl]methoxy} -1H,2H,3H,3aH,4H,5H,9bH-benzo[e]indole-3-carbonyl]cyclohexane-1-carboxylic acid]",2.7 nM
11,"O=C(O)[C@H]1CC[C@](O)(C(=O)N2CC[C@@]3(S(=O)(=O)c4ccc(F)cc4)c4ccc(OCc5cc(Cl)ccc5Cl)cc4CC[C@@H]23)CC1 [Example 112, (1 s,4 s)-4-[(3aR,9bR)-7-[(2,5-dichlorophenyl)methoxy]-9b-(4-fluorobenzenesulfonyl)-1H,2H,3H,3aH,4H,5H,9bH-benzo[e]indole-3-carbonyl] -4-hydroxycyclohexane-1-carboxylic acid]",3.6 nM
12,"C[C@]1(C(=O)N2CC[C@@]3(S(=O)(=O)c4ccc(F)cc4)c4ccc(OCc5cc(Cl)ccc5Cl)cc4CC[C@@H]23)CC[C@H](C(=O)O)CC1 [Example 113, (1r,4r)-4-[(3aR,9bR)-7-[(2,5-dichlorophenyl)methoxy]-9b-(4-fluorobenzenesulfonyl)-1H,2H,3H,3aH,4H,5H,9bH-benzo[e]indole-3-carbonyl]-4-methylcyclohexane-1-carboxylic acid]",3.1 nM
13,"O=C(O)[C@H]1CC[C@H](C(=O)N2CC[C@@]3(S(=O)(=O)c4ccc(F)cc4)c4ccc(OCc5ccncc5Cl)cc4CC[C@@H]23)CC1 [Example 114, (1r,4r)-4-[(3aR,9bR)-7-[(3-chloropyridin-4-yl)methoxy]-9b-(4-fluorobenzenesulfonyl)-1H,2H,3H,3aH,4H,5H,9bH-benzo[e]indole-3-carbonyl]cyclohexane-1-carboxylic acid]",53 nM
14,"O=C(O)[C@H]1CC[C@H](C(=O)N2CC[C@@]3(S(=O)(=O)c4ccc(F)cc4)c4ccc(Oc5c(F)ccnc5F)cc4CC[C@@H]23)CC1 [Example 115, (1r,4r)-4-[(3aR,9bR)-7-[(2,4-difluoropyridin-3-yl)oxy]-9b-(4-fluorobenzenesulfonyl)-1H,2H,3H,3aH,4H,5H,9bH-benzo[e]indole-3-carbonyl]cyclohexane-1-carboxylic acid]",25 nM
15,"O=C(O)[C@H]1CC[C@H](C(=O)N2CC[C@@]3(S(=O)(=O)c4ccc(F)cc4)c4ccc(Oc5cccnc5F)cc4CC[C@@H]23)CC1 [Example 116, (1r,4r)-4-[(3aR,9bR)-9b-(4-fluorobenzenesulfonyl)-7-[(2-fluoropyridin-3-yl)oxy]-1H,2H,3H,3aH,4H,5H,9bH-benzo[e]indole-3-carbonyl]cyclohexane-1-carboxylic acid]",51 nM
16,"O=C(C1CCS(=O)(=O)CC1)N1CC[C@@]2(S(=O)(=O)c3ccc(F)cc3)c3ccc(Oc4cccnc4F)cc3CC[C@@H]12 [Example 117, 4-[(3aR,9bR)-9b-(4-fluorobenzenesulfonyl)-7-[(2-fluoropyridin-3-yl)oxy]-1H,2H,3H,3aH,4H,5H,9bH-benzo[e]indole-3-carbonyl]-1λ^6-thiane-1,1-dione]",7.1 nM
17,"O=C(C1CCS(=O)(=O)CC1)N1CC[C@@]2(S(=O)(=O)c3ccc(F)cc3)c3ccc(Sc4c(Cl)cccc4Cl)cc3CC[C@@H]12 [Example 118, 4-[(3aR,9bR)-7-[(2,6-dichlorophenyl)sulfanyl]-9b-(4-fluorobenzenesulfonyl)-1H,2H,3H,3aH,4H,5H,9bH-benzo[e]indole-3-carbonyl]-1λ^6-thiane-1,1-dione]",1.3 nM
18,"O=C(O)[C@H]1CC[C@H](C(=O)N2CC[C@@]3(S(=O)(=O)c4ccc(F)cc4)c4ccc(Sc5c(Cl)cccc5Cl)cc4CC[C@@H]23)CC1 [Example 119, (1r,4r)-4-[(3aR,9bR)-7-[(2,6-dichlorophenyl)sulfanyl]-9b-(4-fluorobenzenesulfonyl)-1H,2H,3H,3aH,4H,5H,9bH-benzo[e]indole-3-carbonyl]cyclohexane-1-carboxylic acid]",1.4 nM
19,"O=C(O)[C@H]1CC[C@H](C(=O)N2CC[C@@]3(S(=O)(=O)c4ccc(F)cc4)c4ccc(OCc5ccccc5)cc4CC[C@@H]23)CC1 [Example 120, (1r,4r)-4-[(3aR,9bR)-7-(benzyloxy)-9b-(4-fluorobenzenesulfonyl)-1H,2H,3H,3aH,4H,5H,9bH-benzo[e]indole-3-carbonyl]cyclohexane-1-carboxylic acid]",18 nM
20,"O=C(O)[C@H]1CC[C@H](C(=O)N2CC[C@@]3(S(=O)(=O)c4ccc(F)cc4)c4ccc(OCc5c(Cl)cccc5Cl)cc4CC[C@@H]23)CC1 [Example 121, (1r,4r)-4-[(3aR,9bR)-7-[(2,6-dichlorophenyl)methoxy]-9b-(4-fluorobenzenesulfonyl)-1H,2H,3H,3aH,4H,5H,9bH-benzo[e]indole-3-carbonyl]cyclohexane-1-carboxylic acid]",9.7 nM
21,"NS(=O)(=O)CC(=O)N1CC[C@@]2(S(=O)(=O)c3ccc(F)cc3)c3ccc(OCc4c(Cl)cccc4Cl)cc3CC[C@@H]12 [Example 122, 2-[(3aR,9bR)-7-[(2,6-dichlorophenyl)methoxy]-9b-(4-fluorobenzenesulfonyl)-1H,2H,3H,3aH,4H,5H,9bH-benzo[e]indol-3-yl]-2-oxoethane-1-sulfonamide]",127 nM
22,"O=C(C1CCS(=O)(=O)CC1)N1CC[C@@]2(S(=O)(=O)c3ccccc3)c3ccc(OCc4c(F)cccc4Cl)cc3CC[C@@H]12 [Example 123, 4-[(3aR,9bR)-9b-(benzenesulfonyl)-7-[(2-chloro-6-fluorophenyl)methoxy]-1H,2H,3H,3aH,4H,5H,9bH-benzo[e]indole-3-carbonyl]-1λ^6-thiane-1,1-dione]",7.1 nM
